We go through one compound from article PMC10482274, “Probing the substrate binding modes and catalytic mechanisms of BLEG-1, a promiscuous B3 metallo-β-lactamase with glyoxalase II properties” (PLOS ONE, 2023).

The target of the test is T1, BLEG-1 (B3 metallo-β-lactamase) (Shouchella lehensis, UniProt A0A060M4R1).
T1 construct: gene BleG1_2478; wild-type recombinant BLEG-1 (26 kDa), purified by Ni-NTA
As to the kind of experiment: circular dichroism titration ([…] nm, non-linear regression); hydrolysis assay at […] nm with the purified enzyme. It is filed as binding. In general terms: CD spectra are sensitive to the conformation of chiral molecules.

T1 sequence (A0A060M4R1 entry or part of it): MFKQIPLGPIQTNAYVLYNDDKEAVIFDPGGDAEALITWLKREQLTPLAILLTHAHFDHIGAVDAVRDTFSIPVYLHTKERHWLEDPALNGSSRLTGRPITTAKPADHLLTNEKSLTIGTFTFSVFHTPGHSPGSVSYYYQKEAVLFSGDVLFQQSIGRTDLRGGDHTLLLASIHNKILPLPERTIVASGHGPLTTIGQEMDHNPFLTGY

Broadly, the Kd is a measure of binding affinity in units of concentration. Read a high Kd as weaker binding. Consider `CC1(C)S[C@@H]2[C@H](NC(=O)[C@H](N)c3ccccc3)C(=O)N2[C@H]1C(=O)O` [ampicillin], for which the Kd came out at 1510 nM.
